From the supplement of paper PMC10307832

What was measured:
Test in all cases: relative viability (nuclei count vs DMSO), 5 days (fraction); higher = more cells survive
BAY61-3606 + Navitoclax = compound: COC1=C(C=C(C=C1)C2=CC3=NC=CN3C(=N2)NC4=C(C=CC=N4)C(=O)N)OC [BAY61-3606] + CC1(C)CCC(c2ccc(Cl)cc2)=C(CN2CCN(c3ccc(C(=O)NS(=O)(=O)c4ccc(N[C@H](CCN5CCOCC5)CSc5ccccc5)c(S(=O)(=O)C(F)(F)F)c4)cc3)CC2)C1 [Navitoclax] (partner 0.5 µM)
In short: (§1)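 Lung cancer cell lines were pin-tool dosed in 1536-well plates on the day after seeding, with either a lone drug or a fixed anchor-drug dose plus five library-drug doses (not always all listed) in √10 steps. Nuclei were counted on 4× images after 5 days. Relative viability is the ratio of treated-well to vehicle-well nuclei counts, with each value a median of duplicate plates.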

BAY61-3606 + Foretinib = compound: COC1=C(C=C(C=C1)C2=CC3=NC=CN3C(=N2)NC4=C(C=CC=N4)C(=O)N)OC [BAY61-3606] + COc1cc2c(Oc3ccc(NC(=O)C4(C(=O)Nc5ccc(F)cc5)CC4)cc3F)ccnc2cc1OCCCN1CCOCC1 [Foretinib] (partner 0.25 µM)
In short: as §1

Doxorubicin = compound: COc1cccc2c1C(=O)c1c(O)c3c(c(O)c1C2=O)C[C@@](O)(C(=O)CO)C[C@@H]3O[C@H]1C[C@H](N)[C@H](O)[C@H](C)O1 [Doxorubicin]
In short: (§2)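 Viability was defined as treated-well nuclei divided by vehicle-well nuclei, with the median taken over replicate plates. Cells from lung cancer lines sat overnight at 37 °C in 1536-well plates, received five √10-spaced library-drug doses by pinning on vehicle-anchored plates, and grew 5 days without medium change before one-step fixation, permeabilisation and Hoechst staining, 4× imaging and MetaXpress nuclear counts. Only plates with control CV under 25% and at least one doubling were kept.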

BAY61-3606 = compound: COC1=C(C=C(C=C1)C2=CC3=NC=CN3C(=N2)NC4=C(C=CC=N4)C(=O)N)OC [BAY61-3606]
In short: as §2

Cell Line | relative viability (BAY61-3606 + Navitoclax; first compound 0.02 µM) | relative viability (BAY61-3606 + Navitoclax; first compound 0.06325 µM) | relative viability (BAY61-3606 + Navitoclax; first compound 0.2 µM) | relative viability (BAY61-3606 + Navitoclax; first compound 0.6325 µM) | relative viability (BAY61-3606 + Navitoclax; first compound 2 µM) | relative viability (BAY61-3606 + Foretinib; first compound 0.02 µM) | relative viability (BAY61-3606 + Foretinib; first compound 0.06325 µM) | relative viability (BAY61-3606 + Foretinib; first compound 0.2 µM) | relative viability (BAY61-3606 + Foretinib; first compound 0.6325 µM) | relative viability (BAY61-3606 + Foretinib; first compound 2 µM) | relative viability (Doxorubicin; 0.001 µM) | relative viability (Doxorubicin; 0.003162 µM) | relative viability (Doxorubicin; 0.01 µM) | relative viability (Doxorubicin; 0.03162 µM) | relative viability (Doxorubicin; 0.1 µM) | relative viability (BAY61-3606; 0.02 µM) | relative viability (BAY61-3606; 0.06325 µM) | relative viability (BAY61-3606; 0.2 µM) | relative viability (BAY61-3606; 0.6325 µM) | relative viability (BAY61-3606; 2 µM)
NCI-H322M | 1.38 | 1.25 | 1.22 | 1.3 | 1.33 | 1.12 | 0.91 | 0.981 | 1.03 | 0.831 | 1 | 0.887 | 0.976 | 0.904 | 0.568 | 1.04 | 0.919 | 1 | 0.921 | 0.843
SK-MES-1 | 1.32 | 1.3 | 1.24 | 1.39 | 1.09 | 1.08 | 0.918 | 0.85 | 0.96 | 0.839 | 0.997 | 1.06 | 0.906 | 0.594 | 0.542 | 1.02 | 0.994 | 0.974 | 1.06 | 0.891
NCI-H2170 | 0.618 | 0.607 | 0.572 | 0.517 | 0.259 | 0.993 | 1.03 | 1.02 | 0.523 | 0.782 | 0.973 | 0.992 | 0.93 | 0.799 | 1.02 | 0.983 | 0.978 | 0.974 | 1.03 | 0.932
EPLC-272H | 1.1 | 1 | 0.934 | 1.19 | 1.19 | 0.705 | 0.6 | 0.789 | 0.694 | 0.397 | 0.84 | 0.949 | 0.932 | 0.792 | 0.964 | 1.02 | 1.05 | 0.894 | 0.873 | 0.729
EBC-1 | 0.421 | 0.362 | 0.525 | 0.504 | 0.281 | 0.105 | 0.0977 | 0.0899 | 0.0956 | 0.102 | 1 | 1.09 | 1.01 | 0.702 | 0.534 | 1.04 | 0.999 | 0.953 | 1.04 | 0.888
NCI-H1975 | 1.16 | 0.937 | 1.02 | 1.04 | 0.72 | 1.06 | 0.931 | 0.874 | 0.974 | 0.65 | 1.02 | 0.985 | 0.951 | 0.778 | 0.518 | 0.958 | 0.964 | 0.913 | 0.874 | 0.668
NCI-H727 | 0.45 | 0.512 | 0.419 | 0.525 | 0.33 | 0.919 | 0.931 | 0.887 | 0.985 | 0.8 | 0.874 | 0.971 | 0.76 | 0.928 | 0.812 | 1 | 0.923 | 0.983 | 1.01 | 0.901
NCI-H520 | 1.29 | 1.11 | 1.24 | 1.1 | 1.04 | 0.935 | 0.716 | 0.839 | 0.669 | 0.744 | 0.901 | 1.03 | 0.939 | 0.799 | 0.822 | 1.07 | 1.06 | 1.07 | 1.12 | 1.05
NCI-H1355 | 1.08 | 0.962 | 0.865 | 0.995 | 0.721 | 0.981 | 0.911 | 0.922 | 0.992 | 0.761 | 0.888 | 1.04 | 1.01 | 0.989 | 1.01 | 1.08 | 0.916 | 0.937 | 0.961 | 0.882
NCI-H2347 | 0.802 | 0.789 | 0.859 | 0.936 | 0.754 | 1.03 | 0.601 | 1.46 | 0.856 | 1.17 | 0.992 | 1.08 | 0.945 | 0.945 | 0.838 | 1.03 | 1.05 | 1.04 | 1 | 1.05
LC-2-ad | 0.471 | 0.521 | 0.466 | 0.468 | 0.26 | 1.05 | 0.83 | 0.971 | 1.11 | 0.653 | 0.883 | 0.909 | 0.948 | 0.943 | 0.793 | 1.07 | 1.01 | 0.932 | 1.04 | 0.841
NCI-H838 | 1.3 | 1.24 | 1.07 | 1.12 | 0.956 | 0.973 | 0.991 | 0.947 | 1.06 | 0.955 | 1 | 0.988 | 0.964 | 0.807 | 0.552 | 1.03 | 0.942 | 0.999 | 0.934 | 0.668
NCI-H1793 | 0.547 | 0.578 | 0.471 | 0.459 | 0.249 | 0.79 | 0.674 | – | 0.692 | 0.476 | – | 1.18 | 0.863 | 0.731 | 0.901 | 0.964 | 1.02 | 0.786 | 1.08 | 1.03
NCI-H2087 | 0.896 | 1.06 | 0.981 | 0.922 | 0.82 | 1.21 | 1.08 | 1.05 | 1.06 | 0.924 | 0.819 | 1.15 | 1.01 | 0.78 | 0.636 | 0.996 | 1.15 | 1.18 | 1.11 | 0.961
NCI-H596 | 0.942 | 1.04 | 1.09 | 1.13 | 0.712 | 0.768 | 0.761 | 0.841 | 0.844 | 0.726 | 0.97 | 1.16 | 1.08 | 0.853 | 0.948 | 0.96 | 0.96 | 1.07 | 1.15 | 0.86
